Like-named read-outs stand apart in the source and are kept apart here.
What was measured:
Assay type in all cases: cell-based
[1] = test system: colon cancer cell line HCT 116; test: Growth profile / viability of HCT116 colon cancer cells, XTT test; details: Homo sapiens, HCT-116, 96 h, Control DMSO = 100%, read-out: percentage of viable cells, HCT116
How it was run: (§1)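 Cells were seeded and grown untreated overnight, then exposed to compounds at a final 5 μM (0.4% v/v DMSO). Untreated and 0.4% DMSO-only cells were the controls. Percent viable cells was measured by XTT 96 h after compound addition.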

[2] = Viability of FS non malignant fibroblastic cells, XTT test; details: FS cells (non-malignant fibroblastic cell line), Control DMSO = 100%, read-out: percentage of viable cells, FS
How it was run: as §1

[3] = test system: colon cancer cell line RKO; test: Growth profile / viability of RKO colon cancer cells, XTT test; details: 96 h, Control DMSO = 100%, read-out: percentage of viable cells, RKO
How it was run: as §1

[4] = test system: colon cancer cell line HT29; test: Growth profile / viability of HT29 colon cancer cells, XTT test; details: Homo sapiens, HT-29, 96 h, Control DMSO = 100%, read-out: percentage of viable cells, HT29
How it was run: as §1

| SMILES | viability at 5 µM ([1]; first HCT116 column) [%] | viability at 5 µM ([1]; second HCT116 column) [%] | viability at 96 h, 5 µM ([2]; first FS column) [%] | viability at 96 h, 5 µM ([2]; second FS column) [%] | viability at 5 µM ([3]; first RKO column) [%] | viability at 5 µM ([3]; second RKO column) [%] | viability at 5 µM ([4]; first HT29 column) [%] | viability at 5 µM ([4]; second HT29 column) [%] |
| --- | --- | --- | --- | --- | --- | --- | --- | --- |
| CN1CCN(C(=O)CN2CCN(C(=O)C3CCN(c4nn5cc(-c6ccc(Cl)cc6)nc5s4)CC3)CC2)CC1 [Compound Z522-0215, 6-(4-chlorophenyl)-2-[4-({4-[2-(4-methylpiperazin-1-yl)-2-oxoethyl]piperazin-1-yl}carbonyl)piperidin-1-yl]imidazo[2,1-b][1,3,4]thiadiazole] | 63 | 58 | 85 | 109 | 6 | 10 | 14 | 11 |
| CN(C)CCNC(=O)CN(C)C(=O)C1CCN(c2nn3cc(-c4ccc(Cl)cc4)nc3s2)CC1 [Compound Z522-0216, 1-[6-(4-chlorophenyl)imidazo[2,1-b][1,3,4]thiadiazol-2-yl]-N^4-(2-[2-(dimethylamino)ethyl]amino-2-oxoethyl)-N^4-methyl-4-piperidinecarboxamide] | 68 | 86 | 86 | 93 | 0 | 2 | 10 | 11 |
| O=C(C1CCN(c2nn3cc(-c4ccc(Cl)cc4)nc3s2)CC1)N1CCCN(c2ncccn2)CC1 [Compound Z522-0219, 6-(4-chlorophenyl)-2-{4-[(4-pyrimidin-2-yl-1,4-diazepan-1-yl)carbonyl]piperidin-1-yl}imidazo[2,1-b][1,3,4]thiadiazole] | 75 | 67 | 89 | 94 | 48 | 45 | 91 | 95 |
| CC(C)c1ccc(-c2cn3nc(N4CCC(C(=O)N5CCN(c6ccccn6)CC5)CC4)sc3n2)cc1 [Compound Z522-0223, 6-(4-isopropyl-phenyl)-2-{4-[(4-pyridin-2-ylpiperazin-1-yl)carbonyl]piperidin-1-yl}imidazo[2,1-b][1,3,4]thiadiazole] | 75 | 80 | 87 | 92 | 64 | 81 | 83 | 89 |
| CC(C)c1ccc(-c2cn3nc(N4CCC(C(=O)N(C)CCc5ccccn5)CC4)sc3n2)cc1 [Compound Z522-0226, 1-[6-(4-isopropylphenyl)imidazo[2,1-b][1,3,4]thiadiazol-2-yl]-N-methyl-N-(2-pyridin-2-ylethyl)piperidine-4-carboxamide] | 80 | 80 | 91 | 99 | 72 | 64 | 101 | 92 |
| CC(C)c1ccc(-c2cn3nc(N4CCC(C(=O)N5CCN(c6ncccn6)CC5)CC4)sc3n2)cc1 [Compound Z522-0227, 6-(4-isopropyl-phenyl)-2-{4-[(4-pyrimidin-2-ylpiperazin-1-yl)carbonyl]piperidin-1-yl}imidazo[2,1-b][1,3,4]thiadiazole] | 72 | 84 | 89 | 91 | 63 | 63 | 91 | 91 |
| CC(C)c1ccc(-c2cn3nc(N4CCC(C(=O)N(C)CCc5ccncc5)CC4)sc3n2)cc1 [Compound Z522-0228, 1-[6-(4-isopropylphenyl)imidazo[2,1-b][1,3,4]thiadiazol-2-yl]-N-methyl-N-(2-pyridin-4-ylethyl)piperidine-4-carboxamide] | 82 | 70 | 111 | 113 | 51 | 55 | 58 | 61 |
| CC(C)c1ccc(-c2cn3nc(N4CCC(C(=O)N5CCN(CCN(C)C)CC5)CC4)sc3n2)cc1 [Compound Z522-0229, {2-[4-({1-[6-(4-isopropylphenyl)imidazo[2,1-b][1,3,4]thiadiazol-2-yl]piperidin-4-yl}carbonyl)piperazin-1-yl]ethyl} dimethylamine] | 87 | 99 | 79 | 101 | 45 | 47 | 74 | 77 |
| Cc1ccc(C)n1CCN1CCN(C(=O)C2CCN(c3nn4cc(-c5ccc(C(C)C)cc5)nc4s3)CC2)CC1 [Compound Z522-0232, 2-[4-({4-[2-(2,5-dimethyl-1H-pyrrol-1-yl)ethyl]piperazin-1-yl}carbonyl)piperidin-1-yl]-6-(4-isopropylphenyl) imidazo[2,1-b][1,3,4]thiadiazole] | 79 | 68 | 106 | 93 | 35 | 38 | 20 | 22 |
| CC(C)c1ccc(-c2cn3nc(N4CCC(C(=O)N5CCCCC5CCN5CCCCC5)CC4)sc3n2)cc1 (stereo not shown) [Compound Z522-0233, 6-(4-isopropylphenyl)-2-(4-{[2-(2-piperidin-1-ylethyl)piperidin-1-yl]carbonyl}piperidin-1-yl)imidazo[2,1-b][1,3,4]thiadiazole] | 1 | – | – | 3 | – | 0 | 1 | 0 |
| CC(C)c1ccc(-c2cn3nc(N4CCC(C(=O)N5CCCC(CN6CCOCC6)C5)CC4)sc3n2)cc1 (stereo not shown) [Compound Z522-0237, 6-(4-isopropyl-phenyl)-2-(4-{[3-(morpholin-4-yl-methyl)piperidin-1-yl]carbonyl}piperidin-1-yl)imidazo[2,1-b][1,3,4]thiadiazole] | 74 | 89 | 82 | 105 | 11 | 8 | 13 | 8 |
| CC(C)c1ccc(-c2cn3nc(N4CCC(C(=O)N5CCN(CC(=O)N6CCN(C)CC6)CC5)CC4)sc3n2)cc1 [Compound Z522-0238, 6-(4-isopropylphenyl)-2-[4-({4-[2-(4-methylpiperazin-1-yl)-2-oxoethyl]piperazin-1-yl}carbonyl)piperidin-1-yl]imidazo[2,1-b][1,3,4]thiadiazole] | 54 | 49 | 85 | 99 | 1 | 3 | 6 | 7 |
| CC(C)c1ccc(-c2cn3nc(N4CCC(C(=O)N(C)CC(=O)NCCN(C)C)CC4)sc3n2)cc1 [Compound Z522-0239, N^4-(2-[2-(dimethylamino)ethyl]amino-2-oxoethyl)-1-[6-(4-isopropylphenyl)imidazo[2,1-b][1,3,4]thiadiazol-2-yl]-N^4-methyl-4-piperidinecarboxamide] | 80 | 45 | 83 | 96 | 1 | 1 | 3 | 2 |
| CC(C)c1ccc(-c2cn3nc(N4CCC(C(=O)N(C)CC(=O)N5CCN(C)CC5)CC4)sc3n2)cc1 [Compound Z522-0240, 1-[6-(4-isopropylphenyl)imidazo[2,1-b][1,3,4]thiadiazol-2-yl]-N^4-methyl-N^4-[2-(4-methyl-piperazino)-2-oxoethyl]-4-piperidinecarboxamide] | 82 | 68 | 80 | 101 | 19 | 15 | 50 | 53 |
| CC(C)c1ccc(-c2cn3nc(N4CCC(C(=O)N5CCN(CC(=O)NCCN(C)C)CC5)CC4)sc3n2)cc1 [Compound Z522-0241, N-[2-(dimethylamino)ethyl]-2-[4-({1-[6-(4-isopropylphenyl)imidazo[2,1-b][1,3,4]thiadiazol-2-yl]piperidin-4-yl}carbonyl)piperazin-1-yl]acetamide] | 33 | 36 | 78 | 88 | – | 0 | 0 | 0 |
| CC(C)c1ccc(-c2cn3nc(N4CCC(C(=O)N5CCCN(c6ncccn6)CC5)CC4)sc3n2)cc1 [Compound Z522-0242, 6-(4-isopropylphenyl)-2-{4-[(4-pyrimidin-2-yl-1,4-diazepan-1-yl)carbonyl]piperidin-1-yl}imidazo[2,1-b][1,3,4]thiadiazole] | 88 | 86 | 89 | 123 | 55 | 50 | 72 | 66 |

Reference: patent US20180186815A1, “PHARMACEUTICAL COMPOSITIONS, METHODS FOR THEIR PREPARATION AND THEIR USE IN THE TREATMENT OF CANCER” (Urifer Ltd., priority 2016, published 2018)
